Legend:
Type in all cases: physicochemical
[1] = IC analysis of residual solid of phosphate crystalline form I (PO4 content, dissociation)
Protocol: IC analysis of the salts was performed by using a Thermo ICS-6000 instrument.

[2] = Dynamic vapor sorption (DVS) hygroscopicity
Protocol: The water vapor sorption/desorption data of the samples were collected on a dynamic vapor sorption instrument (proUmid GmbH & Co. KG, Germany). Approximately 50-70 mg of sample was placed in a sample pan previously tared and the weight of the sample was measured accurately.

[3] = Short-term physical stability of anhydrous crystal forms (40° C./75% RH, open, 1 day; XRPD)
From the text: In addition to the mesylate crystalline form I, the other anhydrous crystalline forms were stable under high humidity conditions.

[4] = Solubility analysis in biological solvents (SGF, FaSSIF, FeSSIF) and water, with pH and XRPD of residual solid; conditions: for Solubility: 37° C.
Protocol: (§1) HPLC analysis was performed by using an Agilent HPLC 1260 series instrument and the HPLC methods used for solubility and stability determinations were shown in Tables 33 and 34, respectively.

[5] = Solid state stability at 60° C. (closed) and 40° C./75% RH (open), XRPD and HPLC purity
Protocol: (closed) and 40° C./75 RH (open) for 14 days, XRPD analysis and purity analysis were performed at various points of time, and solid-state stability was evaluated.
as §1

In the case of `Cc1c(C#Cc2cnc3ccc(N4CCC(O)CC4)nn23)cccc1C(=O)Nc1cc(Cl)cc(C(F)(F)F)c1` [Phosphate crystalline form I], the “dissociation of salt in solubility media (IC of residual solids)” value ([1]; FaSSIF and FeSSIF) is reported as “dissociated to free base”, the Dissociation degree ([1]; FaSSIF, 0.5 h) is reported as 91% and the “PO4^3− in residual solid” value ([1]; FaSSIF, 0.5 h) is reported as 0.1 eq. The “XPRD Results Dry sample of residual solid” value ([1]; FaSSIF, 0.5 h) was “Amorphous”, the “XPRD Results Wet sample of residual solid” value ([1]; FaSSIF, 0.5 h) was “Form 1” and the Dissociation degree ([1]; FaSSIF, 2 h) was 97%. For the same compound, the “PO4^3− in residual solid” value ([1]; FaSSIF, 2 h) was 0.03 eq, the “XPRD Results Dry sample of residual solid” value ([1]; FaSSIF, 2 h) was “Amorphous” and the “XPRD Results Wet sample of residual solid” value ([1]; FaSSIF, 2 h) was “Form 1”. For the same compound, the Dissociation degree ([1]; FaSSIF, 24 h) was >99%, the “PO4^3− in residual solid” value ([1]; FaSSIF, 24 h) was <0.006 eq and the “XPRD Results Dry sample of residual solid” value ([1]; FaSSIF, 24 h) was “Form 3”. The “XPRD Results Wet sample of residual solid” value ([1]; FaSSIF, 24 h) was “Form 2”, the Dissociation degree ([1]; FeSSIF, 0.5 h) was >99% and the “PO4^3− in residual solid” value ([1]; FeSSIF, 0.5 h) was <0.006 eq. The “XPRD Results Dry sample of residual solid” value ([1]; FeSSIF, 0.5 h) was “Amorphous”, the “XPRD Results Wet sample of residual solid” value ([1]; FeSSIF, 0.5 h) was “Form 1” and the Dissociation degree ([1]; FeSSIF, 24 h) was 100%. For the same compound, the “PO4^3− in residual solid” value ([1]; FeSSIF, 24 h) was 0 eq, the “XPRD Results Dry sample of residual solid” value ([1]; FeSSIF, 24 h) was “Amorphous” and the “XPRD Results Wet sample of residual solid” value ([1]; FeSSIF, 24 h) was “Form 1”. For the same compound, the “crystalline form after DVS analysis (XRPD)” value [2] was “remained unchanged”, the “hygroscopicity (DVS)” value [2] was “slightly hygroscopic” and the “DVS The weight gains by vapor sorption %” value ([2]; 80% RH) was 1.3%. For the same compound, the “DVS The weight gains by vapor sorption %” value ([2]; 90% RH) was 1.6%, the “DVS The weight gains by vapor sorption %” value ([2]; 90% RH, listed as phosphate crystalline form I) was ~1.6% and the “XPRD Results after short-term physical stability” value [3] was “unchanged”. For the same compound, the “pH in solubility analysis” value ([4]; FaSSIF (medium pH 6.5), 0.5 h) was 5.7, the “pH in solubility analysis” value ([4]; FaSSIF (medium pH 6.5), 2 h) was 5.5 and the “pH in solubility analysis” value ([4]; FaSSIF (medium pH 6.5), 24 h) was 5.5. For the same compound, the solubility at 24 h ([4]; FaSSIF, 37 °C, pH 6.5, fassif, thermodynamic from solid, 24 h, target 5 mg/mL) was 22 µg/mL, the “XRPD of residual solid in solubility analysis” value (“XRPD of residual solid” below) ([4]; FaSSIF, 0.5 h) was “Form 1” and the Solubility ([4]; FaSSIF, 0.5 h, target 5 mg/mL) was 57 µg/mL. The Solubility ([4]; FaSSIF, 0.5 h, target 5 mg/mL, listed as phosphate crystalline form I) was 57 µg/mL, the “XRPD of residual solid” value ([4]; FaSSIF, 0.5 h, listed as phosphate crystalline form I) was “Newform 1” and the Solubility ([4]; FaSSIF, 2 h, target 5 mg/mL) was 48 µg/mL. For the same compound, the Solubility ([4]; FaSSIF, 2 h, target 5 mg/mL, listed as phosphate crystalline form I) was 48 µg/mL, the “XRPD of residual solid” value ([4]; FaSSIF, 24 h) was “Form 2” and the “XRPD of residual solid” value ([4]; FaSSIF, 24 h, listed as phosphate crystalline form I) was “new form 2”. For the same compound, the “pH in solubility analysis” value ([4]; FeSSIF (medium pH 5.0), 0.5 h) was 4.9, the “pH in solubility analysis” value ([4]; FeSSIF (medium pH 5.0), 2 h) was 4.9 and the “pH in solubility analysis” value ([4]; FeSSIF (medium pH 5.0), 24 h) was 5.0. The “XRPD of residual solid” value ([4]; FeSSIF, 0.5 h) was “Form 1”, the Solubility ([4]; FeSSIF, 0.5 h, target 5 mg/mL) was 1029 µg/mL and the Solubility ([4]; FeSSIF, 0.5 h, target 5 mg/mL, listed as phosphate crystalline form I) was 1029 µg/mL. For the same compound, the “XRPD of residual solid” value ([4]; FeSSIF, 0.5 h, listed as phosphate crystalline form I) was “Newform 1”, the Solubility ([4]; FeSSIF, 2 h, target 5 mg/mL) was 1175 µg/mL and the Solubility ([4]; FeSSIF, 2 h, target 5 mg/mL, listed as phosphate crystalline form I) was 1175 µg/mL. The “XRPD of residual solid” value ([4]; FeSSIF, 24 h) was “Form 1”, the Solubility ([4]; FeSSIF, 24 h, target 5 mg/mL) was 1948 µg/mL and the Solubility ([4]; FeSSIF, 24 h, target 5 mg/mL, listed as phosphate crystalline form I) was 1948 µg/mL. For the same compound, the “pH in solubility analysis” value ([4]; SGF (medium pH 1.2), 0.5 h) was 1.2, the “pH in solubility analysis” value ([4]; SGF (medium pH 1.2), 2 h) was 1.4 and the “pH in solubility analysis” value ([4]; SGF (medium pH 1.2), 24 h) was 1.2. For the same compound, the Solubility ([4]; SGF, 0.5 h, target 5 mg/mL) was “<LOD”, the Solubility ([4]; SGF, 0.5 h, target 5 mg/mL, listed as phosphate crystalline form I) was “<LOD/<LOD/” and the Solubility ([4]; SGF, 2 h, target 5 mg/mL) was “<LOD”. The Solubility ([4]; SGF, 2 h, target 5 mg/mL, listed as phosphate crystalline form I) was “<LOD/<LOD/”, the “XRPD of residual solid” value ([4]; SGF, 24 h) was “amorphous” and the Solubility ([4]; SGF, 24 h, target 5 mg/mL) was “<LOD”. For the same compound, the “XRPD of residual solid” value ([4]; SGF, after 2 h) was “amorphous”, the “pH in solubility analysis” value ([4]; water (medium pH 6.6), 0.5 h) was 2.8 and the “pH in solubility analysis” value ([4]; water (medium pH 6.6), 2 h) was 2.7. For the same compound, the “pH in solubility analysis” value ([4]; water (medium pH 6.6), 24 h) was 2.6, the Solubility ([4]; water, 0.5 h, target 5 mg/mL) was “<LOD” and the Solubility ([4]; water, 0.5 h, target 5 mg/mL, listed as phosphate crystalline form I) was “<LOD/<LOD/”. The Solubility ([4]; water, 2 h, target 5 mg/mL) was “<LOD”, the Solubility ([4]; water, 2 h, target 5 mg/mL, listed as phosphate crystalline form I) was “<LOD/<LOD/” and the Solubility ([4]; water, 24 h, target 5 mg/mL) was “<LOD”. For the same compound, the “XRPD pattern of the residual solid in water” value ([4]; water, time not stated) was “an additional peak at 160 (20)”, the “Purity in stability evaluation” value ([5]; 0 d) was 98.78 Area % and the “Solid state stability-14 days” value ([5]; 60° C./Closed and 40° C./75% RH (Open), 14 days) was “physically and chemically stable”. The “Purity in stability evaluation” value ([5]; 7 d-40° C./75% RH) was 98.78 Area %, the “XRPD in stability evaluation” value ([5]; 7 d-40° C./75% RH) was “unchanged” and the “Purity in stability evaluation” value ([5]; 7 d-60° C./capped) was 98.78 Area %. For the same compound, the “XRPD in stability evaluation” value ([5]; 7 d-60° C./capped) was “unchanged”, the “Purity in stability evaluation” value ([5]; 14 d-40° C./75% RH) was 98.78 Area % and the “XRPD in stability evaluation” value ([5]; 14 d-40° C./75% RH) was “unchanged”. For the same compound, the “Purity in stability evaluation” value ([5]; 14 d-60° C./capped) was 98.78 Area % and the “XRPD in stability evaluation” value ([5]; 14 d-60° C./capped) was “unchanged”.
